The results in this text go back to US20060168668A1, “Phosphodiesterase 2a and methods of use” (Memory Pharmaceuticals Corporation, priority 2003, published 2006).

Holding throughout (assay type): biochemical
Assay [1] has as its target T1, recombinant human PDE2A4 (Homo sapiens, UniProt O00408, P38L/T213A/V664A).
T1 construct: made in house; host or cells: QM-7 cells (quail myoblast line), transient transfection, crude cell lysate
Briefly: cGMP stimulation of hsPDE2A4 cAMP-hydrolyzing activity. As to conditions: 10 μM cGMP; cAMP substrate 30 μM ([3H]-cAMP/cAMP). The protocol:
FIG. 4. cGMP stimulation of hsPDE2A4 activity. QM7 lysate containing recombinant human PDE2A4 was used in stimulation assay. […] The enzyme activities in the absence or presence of 10 μM cGMP were compared. Data analysis was performed using Prism software.
(§1) To express in active form, human PDE2A4 cDNA was cloned downstream of the CMV promoter into pcDNA3.1/V5-His-TOPO vector, and the plasmid was transiently transfected into QM-7 cells by lipofectamine-plus reagent (Invitrogen). Forty-eight hours after the transfection, the QM-7 cells were lysed in buffer containing 50 mM Tris/HCl, 10 mM NaCl, 5 mM EGTA, 1 mM EDTA, 1 mM DTT and proteinase inhibitor cocktail (Roche). The cell lysate was used as a source for recombinant hsPDE2A4 enzyme.
(§2) The enzyme activity assay was performed according to Thompson et al, Ann N Y Acad Sci, 185:36-41 (1971) and Alvarez et al, Anal Biochem, 203:76-82 (1992) in the presence of 50 mM Tris/HCl, pH 8.0, 5 mM MgCl2, 4 mM 2-mercaptoethanol and 0.3 mg/ml BSA. […] The experiments were performed in duplicates for each substrate concentration. The Km and Vmax were calculated with Michaelis-Menten equation on Prism software.
The enzymatic activity of recombinant human PDE2A4 can be stimulated by cGMP, a unique characteristic for PDE2 gene family (FIG. 4).

In assay [2] the target is T1, recombinant human PDE2A4. Put plainly: Enzyme activity assay, Km and Vmax of human PDE2A4 for cAMP and cGMP. The protocol:
as §1, §2

For assay [3], the target named is T1, recombinant human PDE2A4. Briefly: Inhibition of recombinant human PDE2A4 enzyme activity (QM7 lysate). As to conditions: QM7 lysate containing recombinant human PDE2A4. The protocol:
FIG. 3. EHNA inhibition of hsPDE2A4 activity. QM7 lysate containing recombinant human PDE2A4 was used in inhibition assay with increased concentration of inhibitors (EHNA and Rolipram; 10^−9-10^−[…]). The data and graph were analyzed and generated using Prism software.
as §1, §2

The mark [4] stands for this setting: substrate of human PDE2A4, QM-7 cell lysate, Michaelis-Menten, Prism.

T1 sequence (O00408 1-932 isoform O00408-4 P29L/T204A/V655A): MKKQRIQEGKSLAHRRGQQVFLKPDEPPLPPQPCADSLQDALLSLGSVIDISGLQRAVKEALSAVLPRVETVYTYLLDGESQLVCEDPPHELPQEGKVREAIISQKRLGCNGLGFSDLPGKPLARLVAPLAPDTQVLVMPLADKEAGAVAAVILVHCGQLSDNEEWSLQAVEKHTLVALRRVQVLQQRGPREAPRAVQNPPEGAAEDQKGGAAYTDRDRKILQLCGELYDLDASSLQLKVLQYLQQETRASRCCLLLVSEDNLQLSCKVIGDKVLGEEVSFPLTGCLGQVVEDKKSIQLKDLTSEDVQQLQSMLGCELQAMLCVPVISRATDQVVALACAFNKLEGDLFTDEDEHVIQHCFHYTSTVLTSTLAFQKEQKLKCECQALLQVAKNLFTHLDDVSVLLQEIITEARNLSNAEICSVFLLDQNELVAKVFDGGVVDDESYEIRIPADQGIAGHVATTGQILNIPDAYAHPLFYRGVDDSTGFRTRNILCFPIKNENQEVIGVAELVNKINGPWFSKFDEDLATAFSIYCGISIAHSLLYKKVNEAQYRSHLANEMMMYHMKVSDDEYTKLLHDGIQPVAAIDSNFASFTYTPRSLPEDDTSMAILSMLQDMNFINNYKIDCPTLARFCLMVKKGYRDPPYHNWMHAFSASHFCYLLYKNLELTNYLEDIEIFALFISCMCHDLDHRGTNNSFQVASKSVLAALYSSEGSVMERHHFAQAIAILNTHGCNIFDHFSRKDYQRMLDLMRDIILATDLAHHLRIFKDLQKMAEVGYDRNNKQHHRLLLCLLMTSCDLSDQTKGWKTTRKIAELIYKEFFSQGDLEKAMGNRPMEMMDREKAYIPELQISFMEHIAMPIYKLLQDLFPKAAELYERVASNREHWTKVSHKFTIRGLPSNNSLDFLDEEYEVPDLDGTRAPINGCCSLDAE

Consider `Nc1nc2c(ncn2[C@@H]2O[C@@H]3COP(=O)(O)O[C@H]3[C@H]2O)c(=O)[nH]1` [cGMP, cyclic guanosine 5′ monophosphate], for which the “stimulation of activity for hydrolyzing cAMP” value on recombinant human PDE2A4 [1] is given as “elevated more than three-fold”. In addition, the “affinity of human PDE2A4 for cGMP relative to cAMP” value on recombinant human PDE2A4 [2] (cGMP versus cAMP) is listed as ~2 fold. For the same molecule, at recombinant human PDE2A4 [2] (setting [4]), the Km is 17.5 µM and the Vmax result is on record as “Vmax = 334.4 ± 16.0 pmol/mg/min”.

As to `COc1ccc(C2CNC(=O)C2)cc1OC1CCCC1` (stereo not drawn) [Rolipram], the “inhibitory effect on human PDE2A4 enzyme activity” value on recombinant human PDE2A4 [3] (inhibitors 10^−9-10^−4 μM (FIG. 3)) is “no inhibitory effect”.

As for `CCCCCCC(C(C)O)n1cnc2c(N)ncnc21` (stereo not drawn) [EHNA, erythro-9-(2-hydroxy-3-nonyl)adenine], the IC50 on recombinant human PDE2A4 [3] (inhibitors 10^−9-10^−4 μM, read-out: IC50, inhibition of enzymatic activity of recombinant human PDE2A4) was 1100 nM.
